Measured values from ChEMBL document CHEMBL3102744, “Inhibition of tyrosinase activity by polyphenol compounds from Flemingia philippinensis roots” (Bioorg Med Chem, 2014).
The source made the active and inactive calls. No cut-off for these calls is given here.

Experiments:
Tyrosinase [1] = biological target: T1, Tyrosinase (Agaricus bisporus, UniProt O42713); assay: Competitive inhibition of mushroom tyrosinase using L-tyrosine as substrate preincubated for 10 mins with substrate followed by enzyme addition measured after 15 mins by Dixon plot analysis
T1 sequence (O42713 whole entry): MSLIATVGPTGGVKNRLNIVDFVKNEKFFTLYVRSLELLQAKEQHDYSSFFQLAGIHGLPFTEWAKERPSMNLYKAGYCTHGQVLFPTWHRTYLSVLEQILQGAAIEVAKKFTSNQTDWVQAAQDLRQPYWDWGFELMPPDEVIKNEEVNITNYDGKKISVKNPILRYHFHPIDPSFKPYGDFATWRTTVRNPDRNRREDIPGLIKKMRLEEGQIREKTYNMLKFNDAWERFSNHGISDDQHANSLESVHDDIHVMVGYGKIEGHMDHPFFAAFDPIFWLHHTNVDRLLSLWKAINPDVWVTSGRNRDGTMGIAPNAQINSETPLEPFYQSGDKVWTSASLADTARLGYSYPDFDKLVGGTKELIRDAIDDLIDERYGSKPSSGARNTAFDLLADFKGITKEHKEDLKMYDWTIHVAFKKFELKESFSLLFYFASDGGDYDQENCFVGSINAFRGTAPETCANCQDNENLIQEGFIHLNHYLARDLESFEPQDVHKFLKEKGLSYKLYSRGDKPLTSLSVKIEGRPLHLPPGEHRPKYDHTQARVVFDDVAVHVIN

Tyrosinase [2] = biological target: T1, Tyrosinase; assay: Competitive inhibition of mushroom tyrosinase using L-DOPA as substrate preincubated for 10 mins with substrate followed by enzyme addition measured after 15 mins by Dixon plot analysis
Tyrosinase [3] = biological target: T1, Tyrosinase; assay: Inhibition of mushroom tyrosinase using L-DOPA as substrate preincubated for 10 mins with substrate followed by enzyme addition measured after 15 mins by spectrophotometry
[4] = biological target: T2, Tyrosinase (Agaricus bisporus) (UniProt O42713); assay: Ratio of kojic acid IC50 to compound IC50 for mushroom tyrosinase using L-tyrosine as substrate
T2 sequence (whole entry): T1 sequence (O42713 whole entry)

Tyrosinase [5] = biological target: T1, Tyrosinase; assay: (§1) Inhibition of mushroom tyrosinase using L-tyrosine as substrate preincubated for 10 mins with substrate followed by enzyme addition measured after 15 mins by spectrophotometry
[6] = biological target: T2, Tyrosinase (Agaricus bisporus); assay: as §1
[7] = biological target: T2, Tyrosinase (Agaricus bisporus); assay: Reversible inhibition of mushroom tyrosinase at 0.781 to 3.125 uM
[8] = biological target: T2, Tyrosinase (Agaricus bisporus); assay: Inhibition of mushroom tyrosinase using L-tyrosine as substrate at 0.78 uM by spectrophotometry; conditions: TDE = time-dependent effect

Compound | Ki (Tyrosinase [1]) [µM] | Ki (Tyrosinase [2]) [µM] | IC50 (Tyrosinase [3]) [µM] | Ratio IC50 [4] | IC50 (Tyrosinase [5]) [µM] | inhibition [6] | inhibition [7] | inhibition [8]
COc1ccc(CCC(=O)c2c(O)c3c(c4c2OC(C(C)(C)O)C4)OC(C)(C)C=C3)cc1 (centres undefined) | 0.63 | 2.74 | 5.22 | 10 | 1.28 | Dose-dependent effect |  | 
CC(C)=CCc1c2c(c(O)c3c1O[C@H](c1ccc(O)cc1)CC3=O)C=CC(C)(C)O2 [LUPINIFOLIN] | 5.33 | 36.3 | 84.1 |  | 11.2 | Dose-dependent effect |  | 
CC(C)=CCc1c2c(c(O)c3c1O[C@H](c1ccc(O)cc1O)CC3=O)C=CC(C)(C)O2 [FLEMICHIN D] | 0.86 | 3.77 | 7.48 |  | 1.79 | Dose-dependent effect |  | 
COc1ccc(CCC(=O)c2ccc3c(c2O)CC(O)C(C)(C)O3)cc1 (centres undefined) | 9.36 | 13.3 | 32.6 |  | 18.4 | Dose-dependent effect |  | 
COc1ccc([C@@H]2CC(=O)c3c(O)c4c(c(CC=C(C)C)c3O2)OC(C)(C)C=C4)c(O)c1 [KHONKLONGINOL H] | 2.07 | 8.15 | 20.4 |  | 4.96 | Dose-dependent effect |  | 
COc1ccc(CCC(=O)c2c(O)c(CC=C(C)C)c3c(c2O)CC(O)C(C)(C)O3)cc1 (centres undefined) | 0.48 | 8.16 | 19.5 | 10 | 1.01 | Dose-dependent effect | Active | tde
